Experimental data: article PMC2213567 (The Journal of General Physiology, 2008)

Target: α4β2δ GABAAR (Mus musculus (alpha4); Rattus norvegicus (beta2); Homo sapiens (delta), UniProt P63138+Q9D6F4)
Assay: ultrafast agonist application, outside-out macropatch
Format: cell-based

α4β2δ GABAAR, sequence (Q9D6F4 36-552): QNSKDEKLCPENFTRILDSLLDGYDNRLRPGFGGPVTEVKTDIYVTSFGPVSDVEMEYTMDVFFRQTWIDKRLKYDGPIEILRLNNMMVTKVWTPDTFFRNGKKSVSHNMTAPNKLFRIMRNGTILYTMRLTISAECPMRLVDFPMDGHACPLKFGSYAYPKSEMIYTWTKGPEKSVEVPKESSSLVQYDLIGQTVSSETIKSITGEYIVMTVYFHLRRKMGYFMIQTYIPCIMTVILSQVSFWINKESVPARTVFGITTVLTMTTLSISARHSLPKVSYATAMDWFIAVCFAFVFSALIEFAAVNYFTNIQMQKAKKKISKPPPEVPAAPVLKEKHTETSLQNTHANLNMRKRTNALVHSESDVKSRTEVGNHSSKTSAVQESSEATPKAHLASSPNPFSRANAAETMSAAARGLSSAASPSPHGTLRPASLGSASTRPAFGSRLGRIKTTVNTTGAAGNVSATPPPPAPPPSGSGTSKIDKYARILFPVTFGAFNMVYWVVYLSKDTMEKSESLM
α4β2δ GABAAR, sequence (P63138 26-474): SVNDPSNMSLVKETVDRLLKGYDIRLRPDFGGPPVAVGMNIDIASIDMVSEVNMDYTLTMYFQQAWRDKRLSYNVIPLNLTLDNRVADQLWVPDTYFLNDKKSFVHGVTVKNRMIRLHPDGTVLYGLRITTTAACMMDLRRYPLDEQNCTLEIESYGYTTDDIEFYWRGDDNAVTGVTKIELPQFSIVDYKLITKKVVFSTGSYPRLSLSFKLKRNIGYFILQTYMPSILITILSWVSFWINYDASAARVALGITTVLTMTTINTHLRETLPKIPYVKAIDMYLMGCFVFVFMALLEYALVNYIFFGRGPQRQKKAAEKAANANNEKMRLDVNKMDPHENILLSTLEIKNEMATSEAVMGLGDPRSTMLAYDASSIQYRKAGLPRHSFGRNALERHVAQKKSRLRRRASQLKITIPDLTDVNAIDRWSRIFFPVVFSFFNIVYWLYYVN
α4β2δ GABAAR, sequence (O14764 25-452 partner): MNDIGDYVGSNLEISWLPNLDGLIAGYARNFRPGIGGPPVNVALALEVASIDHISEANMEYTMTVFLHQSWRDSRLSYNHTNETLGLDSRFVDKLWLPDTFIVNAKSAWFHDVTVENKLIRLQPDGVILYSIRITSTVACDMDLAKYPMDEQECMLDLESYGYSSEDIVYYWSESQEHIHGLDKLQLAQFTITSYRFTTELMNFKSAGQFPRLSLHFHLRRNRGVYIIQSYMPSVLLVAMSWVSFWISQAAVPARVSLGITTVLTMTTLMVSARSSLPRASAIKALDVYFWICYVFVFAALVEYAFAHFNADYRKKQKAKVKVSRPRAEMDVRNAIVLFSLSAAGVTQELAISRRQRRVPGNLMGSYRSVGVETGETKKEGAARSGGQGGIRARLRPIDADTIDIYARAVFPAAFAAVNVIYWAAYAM

Oc1noc2c1CCNC2 [THIP, 4,5,6,7-tetrahydroisoxazolo[5,4-c]pyridin-3(2H)-one]
Kd: 683 µM
